Laboratory results reported in US4130709A, “Pleuromutilin glycoside derivatives” (Eli Lilly and Company, priority 1977, dated 1978).
Converted amounts (≈) assume the structure as drawn. Like-named read-outs stand apart in the source and are kept apart here.

Tests used:
[1] = test system: Bacteroides fragilis 1877; experiment: standard agar-dilution test, anaerobic bacteria; format: cell-based; details: Bacteroides fragilis 1877; 24-hour incubation; read-out: MIC
Fusobacterium symbiosum = experiment: standard agar-dilution test, anaerobic bacteria; format: cell-based; details: Fusobacterium symbiosum; 24-hour incubation; read-out: MIC
[2] = test system: Bacteroides melaninogenicus 1856/28; experiment: standard agar-dilution test, anaerobic bacteria; format: cell-based; details: Prevotella intermedia; Bacteroides melaninogenicus 1856/28; 24-hour incubation; read-out: MIC
[3] = test system: Staphylococcus aureus (H-Heatley) NRRL B-314; experiment: in vitro turbidometric assay (Autoturb Microbiological Assay System) against Staphylococcus aureus; format: cell-based; details: nutrient broth pH 7, approximately 4 hours at 37° C., A-40104 factor A as standard
Method in brief: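 S. aureus H-Heatley NRRL B-314 grown in nutrient broth (pH 7), about 4 h at 37° C, with turbidity read on the Autoturb system. Compounds were dissolved in water and diluted to roughly 2.5–5.0 mcg activity/ml. Activity units were set against an A-40104 factor A standard curve (1.25–6.25 mcg/ml).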

[4] = test system: Streptococcus pneumoniae B1492; experiment: in vivo antimicrobial activity, experimental infection in mice, Streptococcus pneumoniae B1492; details: sc, two doses, infecting challenge 340 × LD50 (ip), read-out: ED50 × 2
Procedure: (§1) Typical compounds of the present invention have shown in vivo antimicrobial activity against experimental bacterial infections. When two doses of these compounds were administered to mice in illustrative infections, the activity observed was measured as an ED50 value [effective dose in mg/kg to protect 50% of the test animals; see Warren Wick, et al., J. Bacteriol. 81, 233-235 (1961)].

[5] = toxicity (LD50) on intraperitoneal injection in mice; details: mouse, in vivo, ip
[6] = test system: Bacteroides melaninogenicus 2736; experiment: standard agar-dilution test, anaerobic bacteria; format: cell-based; details: Bacteroides melaninogenicus 2736; 24-hour incubation; read-out: MIC
[7] = test system: Streptococcus pneumoniae Park I; experiment: in vivo antimicrobial activity, experimental infection in mice, Streptococcus pneumoniae Park I; details: sc, read-out: ED50 × 2
Procedure: as §1

[8] = test system: Pasteurella multocida (turkey); experiment: in vitro activity against Pasteurella multocida (turkey); format: cell-based
From the text: (§2) The activity of representative compounds of this invention (R^2 =H in group tested) against P. multocida and the Pseudomonas sp. is summarized in Table VI.

[9] = test system: Peptostreptococcus anaerobius; experiment: standard agar-dilution test, anaerobic bacteria; format: cell-based; details: 24-hour incubation
Bacteroides corrodens = experiment: standard agar-dilution test, anaerobic bacteria; format: cell-based; details: Eikenella corrodens; Bacteroides corrodens; 24-hour incubation; read-out: MIC
Bacteroides fragilis 111 = experiment: standard agar-dilution test, anaerobic bacteria; format: cell-based; details: Bacteroides fragilis 111; 24-hour incubation; read-out: MIC
Pseudomonas sp. (fish) = experiment: in vitro activity against Pseudomonas sp. (fish); format: cell-based
From the text: P. multocida, for example, is a causative agent of respiratory infection in cattle, poultry and swine. P. hemolytica is a major cause of respiratory disease in cattle. The activity of representative compounds of this invention (R^2 =H in group tested) against P. multocida and the Pseudomonas sp. is summarized in Table VI.

Actinomyces israelii = experiment: standard agar-dilution test, anaerobic bacteria; format: cell-based; details: 24-hour incubation
Peptococcus prevoti = experiment: standard agar-dilution test, anaerobic bacteria; format: cell-based; details: Peptococcus prevoti; 24-hour incubation; read-out: MIC
Spiroplasma citri = experiment: in vitro inhibition of Spiroplasma citri measured by a color reaction; format: cell-based; parameters: key to Activity (color reaction): Red (R) includes complete inhibition; red-orange (RO) indicates partial inhibition; yellow (Y) indicates no inhibition
Procedure: In another important aspect, the compounds of this invention are active against Spiroplasmas. Spiroplasma citri is the causative agent of citrus-stubborn disease; another Spiroplasma, corn-stunt Spiroplasma, affects the growth of corn. Table VII summarizes the in vitro activity of representative compounds of the present invention (R^2 =H in this group) against Spiroplasma citri. In this test, inhibition of S. citri is measured by a color reaction. Red (R) includes complete inhibition; red-orange (RO) indicates partial inhibition; and yellow (Y) indicates no inhibition.

[10] = test system: Peptococcus asaccharolyticus; experiment: standard agar-dilution test, anaerobic bacteria; format: cell-based; details: Peptoniphilus asaccharolyticus, 24-hour incubation
[11] = test system: Peptostreptococcus intermedius; experiment: standard agar-dilution test, anaerobic bacteria; format: cell-based; details: Peptostreptococcus intermedius; 24-hour incubation; read-out: MIC
Pasteurella hemolytica = experiment: in vitro tests against Pasteurella hemolytica; format: cell-based
Treponema hyodysenteriae = experiment: in vitro agar plate test against Treponema hyodysenteriae; details: four days anaerobic
Clostridium perfringens = experiment: microbe, parasite or virus in culture; format: cell-based; details: 24 h
Bacteroides vulgatis = experiment: standard agar-dilution test, anaerobic bacteria; format: cell-based; details: Bacteroides vulgatis; 24-hour incubation; read-out: MIC
[12] = test system: Pasteurella multocida (bovine); experiment: in vitro activity against Pasteurella multocida (bovine); format: cell-based
From the text: as §2

[13] = test system: Streptococcus pyrogenes C203; experiment: in vivo antimicrobial activity, experimental infection in mice, Streptococcus pyrogenes C203; details: sc, two doses, read-out: ED50 × 2
Procedure: as §1

Clostridium septicum = experiment: standard agar-dilution test, anaerobic bacteria; format: cell-based; details: 24-hour incubation
Procedure: (§3) Table IV summarizes the activity of typical compounds of this invention, as determined by the standard agar-dilution test.
(§4) *Endpoint read after 24-hour incubation

[14] = test system: Bacteroides thetaiotaomicron; experiment: standard agar-dilution test, anaerobic bacteria; format: cell-based; details: 24-hour incubation
Procedure: as §3, §4

Eubacterium aerofaciens = experiment: standard agar-dilution test, anaerobic bacteria; format: cell-based; details: Collinsella aerofaciens; Eubacterium aerofaciens; 24-hour incubation; read-out: MIC
Mycoplasma hyopneumoniae = experiment: in vitro broth-dilution studies, mycoplasma; format: cell-based; details: Mesomycoplasma hyopneumoniae
From the text: (§5) The minimal inhibitory concentrations (MIC's) of a number of typical compounds of the present invention (R^2 =H in group tested) against various mycoplasma species, as determined by in vitro broth-dilution studies, are summarized in Table V.

Mycoplasma gallisepticum = experiment: in vitro broth-dilution studies, mycoplasma; format: cell-based; details: Mycoplasmoides gallisepticum
From the text: as §5

Mycoplasma synoviae = experiment: in vitro broth-dilution studies, mycoplasma; format: cell-based; details: Mycoplasmopsis synoviae
From the text: as §5

Mycoplasma hyorhinis = experiment: in vitro broth-dilution studies, mycoplasma; format: cell-based
From the text: as §5

[15] = test system: Fusobacterium necrophorum; experiment: standard agar-dilution test, anaerobic bacteria; format: cell-based; details: 24-hour incubation, read-out: MIC
[16] = test system: Bacteroides fragilis 1936B; experiment: standard agar-dilution test, anaerobic bacteria; format: cell-based; details: Bacteroides fragilis 1936B; 24-hour incubation; read-out: MIC
[17] = test system: Staphylococcus aureus 3055; experiment: in vivo antimicrobial activity, experimental infection in mice, Staphylococcus aureus 3055; details: two doses, read-out: ED50 × 2
Procedure: as §1

[18] = test system: Streptococcus pneumoniae B1343; experiment: in vivo antimicrobial activity, experimental infection in mice, Streptococcus pneumoniae B1343; details: sc, two doses, infecting challenge 30 × LD50 (ip), read-out: ED50 × 2
Procedure: as §1

swine dysentery = details: cited from earlier work
[19] = Staphylococcus aureus, 3055, po, oral, infecting challenge 500 × LD50 (ip)
[20] = Staphylococcus aureus, 3055, po, oral, infecting challenge 3400 × LD50 (ip)

C=C[C@]1(C)C[C@@H](OC(=O)CS[C@@H]2OC[C@@H](O)[C@H](O)[C@H]2O)[C@]2(C)[C@H](C)CC[C@]3(CCC(=O)[C@H]32)[C@@H](C)[C@@H]1O [Compound 2]
MIC [1]: 1 µg/mL (≈ 1.9 µM) | MIC (Fusobacterium symbiosum): 2 µg/mL (≈ 3.8 µM) | MIC [2]: > 128 µg/mL | Units of Activity [3]: 995 to 1003 µg/mg | ED50 [4]: 15.3 mg/kg | LD50 [5]: > 1500 mg/kg | MIC [6]: 1 µg/mL (≈ 1.9 µM) | ED50 [7]: 65 mg/kg | MIC [8]: 6.25 µg/mL (≈ 11.9 µM) | MIC [9]: ≤ 0.5 µg/mL | MIC (Bacteroides corrodens): 1 µg/mL (≈ 1.9 µM) | MIC (Bacteroides fragilis 111): 1 µg/mL (≈ 1.9 µM) | MIC (Pseudomonas sp. (fish)): 6.25 µg/mL (≈ 11.9 µM) | MIC (Actinomyces israelii): ≤ 0.5 µg/mL | MIC (Peptococcus prevoti): ≤ 0.5 µg/mL | Activity (color reaction) (Spiroplasma citri; 0.01 ppm): RO,RO | Activity (color reaction) (Spiroplasma citri; 0.05 ppm): --,R | Activity (color reaction) (Spiroplasma citri; 0.1 ppm): R,R | Activity (color reaction) (Spiroplasma citri; 1.0 ppm): R,R | MIC [10]: ≤ 0.5 µg/mL | MIC [11]: ≤ 0.5 µg/mL | MIC (Pasteurella hemolytica): 12.5 µg/mL (≈ 23.7 µM) | inhibition of growth (Treponema hyodysenteriae; 0.5 mcg/ml agar concentration): inhibited growth | inhibition of growth (Treponema hyodysenteriae; 5.0 mcg/ml agar concentration): inhibited growth | inhibition of growth (Treponema hyodysenteriae; 50 mcg/ml agar concentration): inhibited growth | MIC (Clostridium perfringens): 2 µg/mL (≈ 3.8 µM) | MIC (Bacteroides vulgatis): 1 µg/mL (≈ 1.9 µM) | MIC [12]: 3.12 µg/mL (≈ 5.92 µM) | ED50 ([13]; infecting challenge 370 × LD50 (ip)): 11.4 mg/kg | MIC (Clostridium septicum): 2 µg/mL (≈ 3.8 µM) | MIC [14]: 1 µg/mL (≈ 1.9 µM) | MIC (Eubacterium aerofaciens): 1 µg/mL (≈ 1.9 µM) | MIC (Mycoplasma hyopneumoniae): ≤ 0.15 µg/mL | MIC (Mycoplasma gallisepticum): 0.78 µg/mL (≈ 1.48 µM) | MIC (Mycoplasma synoviae): 0.78 µg/mL (≈ 1.48 µM) | MIC (Mycoplasma hyorhinis): 0.39 µg/mL (≈ 0.74 µM) | MIC [15]: ≤ 0.5 µg/mL | MIC [16]: 1 µg/mL (≈ 1.9 µM) | ED50 [17, 19]: 32.4 mg/kg | ED50 [17, 20]: 44 mg/kg | ED50 ([17]; Staphylococcus aureus, 3055, sc, sc, infecting challenge 82 × LD50 (ip)): 1.85 mg/kg

CC[C@]1(C)C[C@@H](OC(=O)CS[C@@H]2OC[C@@H](O)[C@H](O)[C@H]2O)[C@]2(C)[C@H](C)CC[C@]3(CCC(=O)[C@H]32)[C@@H](C)[C@@H]1O [Compound 3]
MIC [1]: 1 µg/mL (≈ 1.89 µM) | MIC (Fusobacterium symbiosum): 1 µg/mL (≈ 1.89 µM) | MIC [2]: 0.25 µg/mL (≈ 0.473 µM) | Units of Activity [3]: 1150 to 1243 µg/mg | ED50 [4]: 13.2 mg/kg | MIC [6]: 0.5 µg/mL (≈ 0.946 µM) | ED50 [7]: 58.5 mg/kg | MIC [8]: 6.25 µg/mL (≈ 11.8 µM) | MIC [9]: ≤ 0.125 µg/mL | MIC (Bacteroides corrodens): 1 µg/mL (≈ 1.89 µM) | MIC (Bacteroides fragilis 111): 2 µg/mL (≈ 3.78 µM) | MIC (Pseudomonas sp. (fish)): 12.5 µg/mL (≈ 23.6 µM) | MIC (Actinomyces israelii): 0.5 µg/mL (≈ 0.946 µM) | MIC (Peptococcus prevoti): ≤ 0.125 µg/mL | Activity (color reaction) (Spiroplasma citri; 0.01 ppm): R | Activity (color reaction) (Spiroplasma citri; 0.05 ppm): R | Activity (color reaction) (Spiroplasma citri; 0.1 ppm): R | Activity (color reaction) (Spiroplasma citri; 1.0 ppm): R | MIC [10]: 0.5 µg/mL (≈ 0.946 µM) | MIC [11]: 0.5 µg/mL (≈ 0.946 µM) | MIC (Clostridium perfringens): 2 µg/mL (≈ 3.78 µM) | MIC (Bacteroides vulgatis): 1 µg/mL (≈ 1.89 µM) | MIC [12]: 6.25 µg/mL (≈ 11.8 µM) | ED50 ([13]; infecting challenge 500 × LD50 (ip)): 7 mg/kg | MIC (Clostridium septicum): 1 µg/mL (≈ 1.89 µM) | MIC [14]: 0.5 µg/mL (≈ 0.946 µM) | MIC (Eubacterium aerofaciens): 0.5 µg/mL (≈ 0.946 µM) | MIC (Mycoplasma hyopneumoniae): ≤ 0.15 µg/mL | MIC (Mycoplasma gallisepticum): 0.39 µg/mL (≈ 0.738 µM) | MIC (Mycoplasma synoviae): 0.39 µg/mL (≈ 0.738 µM) | MIC (Mycoplasma hyorhinis): 0.39 µg/mL (≈ 0.738 µM) | MIC [15]: 1 µg/mL (≈ 1.89 µM) | MIC [16]: 1 µg/mL (≈ 1.89 µM) | ED50 [18]: 16.3 mg/kg | ED50 [17, 19]: 21 mg/kg | ED50 [17, 20]: 29 mg/kg | ED50 ([17]; Staphylococcus aureus, 3055, sc, sc, infecting challenge 400 × LD50 (ip)): 1.6 mg/kg

C=C[C@]1(C)C[C@@H](OC(=O)CO)[C@]2(C)[C@H](C)CC[C@]3(CCC(=O)[C@H]32)[C@@H](C)[C@@H]1O [pleuromutilin]
effectiveness in the treatment of swine dysentery (in words) (swine dysentery): effective in the treatment of swine dysentery
